We go through 1 molecule from PMC4027206, “Crystal structure of Saccharomyces cerevisiae mitochondrial GatFAB reveals a novel subunit assembly in tRNA-dependent amidotransferases” (Nucleic Acids Research, 2014).

For assay [1], the target named is T1, GatFABF24–183 (pseudo-wild-type, full-length GatFAB) (Saccharomyces cerevisiae, UniProt Q03557).
T1 construct: gene HER2; heterotrimer; E. coli host; with Glutamyl-tRNA(Gln) amidotransferase subunit B, mitochondrial; Glutamyl-tRNA(Gln) amidotransferase subunit F, mitochondrial
T1 sequence (Q03557 1-464): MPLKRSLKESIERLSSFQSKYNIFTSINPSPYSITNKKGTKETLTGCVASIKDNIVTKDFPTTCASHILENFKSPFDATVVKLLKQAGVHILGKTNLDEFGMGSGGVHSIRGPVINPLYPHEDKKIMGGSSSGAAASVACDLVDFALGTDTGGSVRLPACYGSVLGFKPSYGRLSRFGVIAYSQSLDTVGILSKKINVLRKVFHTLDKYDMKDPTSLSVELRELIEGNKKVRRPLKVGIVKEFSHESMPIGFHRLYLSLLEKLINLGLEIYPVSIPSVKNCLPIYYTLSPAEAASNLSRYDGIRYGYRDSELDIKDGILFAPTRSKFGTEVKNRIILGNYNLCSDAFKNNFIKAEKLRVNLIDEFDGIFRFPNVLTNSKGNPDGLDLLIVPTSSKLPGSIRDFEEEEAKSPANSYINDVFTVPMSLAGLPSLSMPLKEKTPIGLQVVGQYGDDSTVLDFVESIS
T1 sequence (P33893 16-541 partner): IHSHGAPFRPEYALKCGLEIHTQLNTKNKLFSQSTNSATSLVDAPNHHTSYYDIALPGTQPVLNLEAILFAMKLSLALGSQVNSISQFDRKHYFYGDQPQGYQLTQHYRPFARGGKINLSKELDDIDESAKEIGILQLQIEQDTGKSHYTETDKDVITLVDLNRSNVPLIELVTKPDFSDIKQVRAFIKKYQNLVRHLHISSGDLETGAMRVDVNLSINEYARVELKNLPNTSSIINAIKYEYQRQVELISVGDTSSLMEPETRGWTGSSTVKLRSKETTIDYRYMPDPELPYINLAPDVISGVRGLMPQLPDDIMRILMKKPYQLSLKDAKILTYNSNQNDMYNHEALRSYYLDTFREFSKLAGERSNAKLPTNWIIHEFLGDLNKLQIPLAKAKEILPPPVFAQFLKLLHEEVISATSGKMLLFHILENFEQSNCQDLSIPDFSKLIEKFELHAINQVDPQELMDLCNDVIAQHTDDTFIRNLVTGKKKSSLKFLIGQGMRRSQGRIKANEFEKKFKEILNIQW
T1 sequence (P53260 24-183 partner): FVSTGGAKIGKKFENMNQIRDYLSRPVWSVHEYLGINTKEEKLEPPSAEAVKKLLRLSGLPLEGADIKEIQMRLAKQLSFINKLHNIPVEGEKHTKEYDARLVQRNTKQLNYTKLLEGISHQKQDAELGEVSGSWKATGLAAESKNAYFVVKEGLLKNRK
The experiment in a line: glutaminase assay, […]Gln, TLC. It counts as biochemical. The conditions noted are these: 50 μM [14C]L-glutamine; Glu-tRNA^Gln, ATP, 12 mM MgCl2, pH 7.2, 37°C; labelled compound.

Assay [2] deals with T2, GatFABΔHY (Saccharomyces cerevisiae, UniProt Q03557).
T2 construct: gene HER2; heterotrimer; E. coli host; with Glutamyl-tRNA(Gln) amidotransferase subunit B, mitochondrial; Glutamyl-tRNA(Gln) amidotransferase subunit F, mitochondrial
T2 sequence (Q03557 1-464): T1 sequence (Q03557 1-464)
T2 sequence (P33893 16-329 partner): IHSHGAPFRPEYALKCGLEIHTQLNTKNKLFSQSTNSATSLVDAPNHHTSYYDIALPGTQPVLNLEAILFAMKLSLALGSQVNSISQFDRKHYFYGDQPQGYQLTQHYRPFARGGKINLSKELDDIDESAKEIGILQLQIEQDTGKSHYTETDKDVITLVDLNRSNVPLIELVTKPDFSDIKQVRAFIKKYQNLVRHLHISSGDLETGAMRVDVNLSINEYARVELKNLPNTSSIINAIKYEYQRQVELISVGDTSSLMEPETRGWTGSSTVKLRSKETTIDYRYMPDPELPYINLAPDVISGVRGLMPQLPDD
T2 sequence (P53260 24-183 partner): T1 sequence (P53260 24-183 partner)
The experiment in a line: X-ray crystal structure, […] Å. The format is binding. The note with it: 10 mM glutamine added before crystallization; GatA glutaminase site (R334, D418, near S154).

Consider `NC(=O)CC[C@H](N)C(=O)O` [glutamine], for which, in assay [1], the “glutaminase assay, [14C]Gln, TLC” value is “reduced activities in both GatA-mediated glutamine-hydrolysis and GatB-mediated transamidation when compared to that of the full-length”. Further, the “X-ray crystal structure, 2.0 Å” value in assay [2] was “the glutamine molecule is bound to the glutaminase site of GatA”.
